melting point | SMILES
87 to 88 °C | C=CCN1CN(C(=O)c2c(F)cccc2F)C(=O)N(c2ccc(Cl)cc2)C1
102 to 104 °C | C=C(C)CO[C@H]1[C@H](C)OC(=O)[C@@H](NC(=O)c2nccc(OC)c2OCOC(C)=O)COC(=O)[C@@H]1Cc1ccccc1
> 200 °C | O=C(O)c1ccc(S(=O)(=O)n2c(=O)[nH]c3cc(Cl)ccc3c2=O)cc1
162 to 164 °C | Nc1cc2c(Nc3ccc(F)c(Cl)c3)ncnc2cc1OCC1CCCO1 (stereo unspecified)
> 230 °C | O=C1NCCCN1c1cc(C(c2cc(F)ccc2F)S(=O)(=O)c2ccc(Cl)cc2)c(Cl)cn1 (stereo unspecified)
83 to 85 °C | COC(=O)C(C)Oc1ccc(COc2ccc(-n3nc(C)n(C(F)F)c3=O)c(F)c2)cc1 (stereo unspecified)
233 to 235 °C | Cn1c(S(=O)(=O)c2ccc(=O)[nH]n2)cc2ccccc21
135 to 136 °C | C=Cc1c2c(c(C)c(C)c1N1CCN(c3ccc(OC)cc3)CC1)OC(C)(C)C2
92 to 93 °C | C=C1N(CCCC)C(=O)OC12CCN(CCC=C(c1ccc(F)cc1)c1ccc(F)cc1)CC2
75 to 75.7 °C | CCOC(=O)c1ccc(OCc2nc(C)c(C)nc2C)cc1
109 to 110 °C | COC(=O)c1c(SCc2ccccc2)n[nH]c1C
114 to 115 °C | C=C(C1=C(CCC(=O)OC)C(=O)CC1OCc1ccc(Cl)cc1)c1ccccc1 (stereo unspecified)
231 °C | O=C(Nc1ccccc1S(=O)(=O)c1ccccc1)N[C@@H](Cc1ccc(NC(=O)c2c(Br)cncc2Br)cc1)C(=O)O
140 °C | Cc1cccc(NC(=O)NCC(=O)N(CC(=O)OCc2ccccc2)c2ccccc2)c1
101 to 102 °C | Cn1nc(C(F)(F)F)cc1Oc1ccnc(-c2ccc(F)cc2)n1
166 to 167 °C | CS(=O)(=O)N1CCN(CCC(CS(=O)(=O)c2ccc(Oc3ccc(OC(F)(F)F)cc3)cc2)N(O)C=O)CC1 (stereo unspecified)
162 to 164 °C | COC(=O)C(=O)Nc1ccc(Cl)cc1
94.5 °C | COc1ccccc(N(C)S(=O)(=O)c2ccc(C)cc2)c1=O
178 to 179 °C | CC(=O)c1ccc2c(c1)C(C(=O)Nc1cccc(C(=O)Nc3ccccc3)c1)C(=O)N2C (stereo unspecified)
105 °C | Cn1c(OCC(F)(F)F)nn(C(=O)Oc2ccccc2)c1=O
135 °C | COC(=O)N(C)CCCC(=O)OC[C@@H]1CC(c2ccc(-c3ccc(N4C[C@H](Cn5ccnn5)OC4=O)cc3F)cn2)=NO1
178 to 179 °C | O=C1c2ccccc2C(=O)N1CC(=O)N1c2ccccc2N(CCc2ccccc2)C(=O)[C@H]2CCC[C@H]21 (relative stereo)
88 to 89 °C | O=C1CCN(Cc2ccccc2OC(F)(F)F)CC1C(c1ccc(F)cc1)c1ccc(F)cc1 (stereo unspecified)
153 to 156 °C | Cc1nnsc1C(=O)Nc1ccc(-n2nc(C3CC3)c(Cl)c2C2CC2)c(F)c1
> 300 °C | O=S(=O)(O)c1cccc(Nc2ccnc3cc(Cl)ccc23)c1
225 to 227 °C | CN(C1CCN(c2ncc3ncnc(Nc4ccc(F)c(Cl)c4)c3n2)CC1)S(C)(=O)=O

melting point | SMILES
124 to 125 °C | CCOc1ccc(C2=NN(C(=O)c3cccnc3)CC2)cc1
169 to 172 °C | Cc1cccc(Oc2cccc(Oc3ccc4c(c3)OCO4)c2C(=O)O)c1
133 to 135 °C | Nc1ccc(C(=O)c2cccc3c2NCC3)cc1
114 to 116 °C | CCC(C)(C)Nc1c(N(Cc2ccc(Cl)cc2Cl)C(C)=O)c(=O)c1=O
258 to 259 °C | CC(=O)NC(C(=O)Nc1ccc(C(=O)OCc2ccccc2)cc1)c1ccc2c(c1)C(C)(C)CCC2(C)C (stereo unspecified)
227 to 230 °C | CCOC(=O)c1cn([C@@H]2C[C@@H]2F)c2cc(F)ccc2c1=O
120 to 125 °C | CNC(=O)NC(C)C(C)CC(=O)NS(=O)(=O)c1ccc(C)cc1 (stereo unspecified)
204 to 205 °C | Cc1c(NC(=O)C(CSC(=O)c2ccccc2)Cc2ccccc2)cccc1C(=O)O (stereo unspecified)
75 to 77 °C | COC(=O)C[C@H](O)CC(=O)CCc1c(-c2ccc(F)cc2)c(-c2ccccc2)c(C(=O)Nc2ccccc2)n1C(C)C
187 to 189 °C | CCOC(=O)C=C1CSC(NC(=O)c2ccccc2)=NN1C(=O)c1ccccc1
98 °C | CCCC[C@H](CN(C=O)OCc1ccccc1)C(=O)N1CCC[C@H]1C(=O)Nc1ccc(F)cn1
142 to 146 °C | COCCOCC(=O)N(c1c(C)c(C)cc2ccccc12)C1CCOC1=O (stereo unspecified)
276 to 277 °C | Cc1ccc(N2C(=O)C(O)=C(C(=O)c3ccc(C(C)C)cc3)C2c2ccc(OC(C)(C)C)cc2)nn1 (stereo unspecified)
150 to 154 °C | O=S(=O)(c1ccc(O)cc1)c1ccc(F)cc1
255 to 257 °C | Cc1ccc(Cl)c2nc3cccc(C(=O)O)c3nc12
255 to 257 °C | COC1CN(C(=O)c2cnn(C)c2C(=O)Nc2ccn3nc(-c4cccc(F)c4)nc3c2)C1
250 to 252 °C | COc1ccc(C(=O)Nc2c(Cl)cc(NC(C)=O)cc2Cl)cc1OC1CCCC1
141 to 142 °C | COC1=C(OC)C(=O)c2c(cccc2S(=O)(=O)c2ccccc2)C1=O
> 250 °C | CC(=O)Nc1nc2ccc(S(=O)(=O)n3c(CCCC(=O)O)cc4cc(C(F)(F)F)ccc43)cc2s1
175 to 176 °C | Cn1nnnc1-c1cc(-c2ccc(F)cc2)sc1-c1ccc(F)cc1
246 to 247 °C | COC(=O)c1cc2cc(OC)c(OC)cc2c(-c2ccnc(Cl)c2)n1
189 °C | N#Cc1ccc(N2CC(=O)NC2=O)c(-c2cccs2)c1
114 to 115 °C | CCOC(=O)C(=O)c1cn(CCNC(=O)OC(C)(C)C)c2ccccc12
176 °C | COC(=O)c1ccccc1S(=O)(=O)N(n1cnn(-c2nc(OC)cc(OC)n2)c1=O)S(=O)(=O)c1ccccc1C(=O)OC
122 °C | CC(C#N)(c1ccc(F)cc1)c1ccc(N2NCC(=O)NC2=O)cc1Cl (stereo unspecified)

Second part, the compound before the results:

SMILES | melting point
CC(=O)OC[C@H]1[C@H](O)[C@@H](O)[C@@H](O)[C@@H]2NC(=O)c3cc4c(cc3[C@@H]12)OCO4 | > 200 °C
O=C1OC(=O)c2cc(N3C(=O)CCC3=O)ccc21 | 228 to 230 °C
Cn1cc(C2=C(c3cn(CCCBr)c4ccccc34)C(=O)OC2=O)c2ccccc21 | 168 to 170 °C
O=[N+]([O-])c1cccc(S(=O)(=O)C(CCl)Sc2ccccc2)c1 (stereo unspecified) | 126 °C
CC(=O)c1ccc2c(c1)C(=O)C1(CCOC1=O)S2 (stereo unspecified) | 139 to 140 °C
COC(=O)c1cc(N(C)C)c(N2CCCCC2)c(N(C)C)c1 | 103 to 105 °C
CN(Cc1c2ccccc2cc2ccccc12)C(=O)Nc1ccccc1CCc1cc(C(C)(C)C)c(O)c(C(C)(C)C)c1 | 205 to 206 °C
O=C(O)c1cccc(CO[N+](=O)[O-])c1 | 123 to 125 °C
CC12CCC3C(CCC4=CC(=CF)CCC43CS)C1CCC2=O (stereo unspecified) | 118 to 120 °C
O=CC1=C(Cl)Nc2cc(F)c(F)cc2C1 | 260 °C
COC(=O)c1cccc2[nH]ncc12 | 153 to 155 °C
Cc1cc(Cl)c(N)c([N+](=O)[O-])c1 | 68.5 to 69.5 °C
COc1cc(Cl)c([N+](=O)[O-])cc1OC | 103 to 105 °C
CNC(=O)c1cn(CCO)nc1[N+](=O)[O-] | 138 to 140 °C
OCc1cc(N2CCCC2)ncn1 | 136 to 139 °C
CCCCN(C)c1nsc(NC(=O)NC)c1C#N | 109 to 110 °C
OC1(CNCc2ccccc2)CCN(CCCc2c[nH]c3ccc(-n4cnnc4)cc23)CC1 | > 60 °C
CC(OC(C)c1ncn2c1CN(C)C(=O)c1cc(Cl)ccc1-2)c1ncn2c1CN(C)C(=O)c1cc(Cl)ccc1-2 (stereo unspecified) | 193 to 194 °C
CSC1NC(=O)N(c2ccc(Cl)c(Cl)c2)C(=O)N1N=C(C)C (stereo unspecified) | 181 to 182 °C
COc1ccc2c(c1)-c1c(C#N)c(N3CCCCC3)c3c(c1C2)-c1ccccc1C3 | 216 to 218 °C
N#Cc1c[nH]nc1-c1ccccc1Cl | 160 °C
CCc1nc2c(cnn2CC)c(NC2CCOCC2)c1CNC(=O)c1cc(C)cc(C(=O)O)c1 | 236 to 239 °C
Cn1ncc(C(=O)N2CC3(COC3)C2)c1C(=O)Nc1ccn2nc(N3CCOCC3)nc2c1 | > 300 °C

SMILES | melting point
CN(Cc1cc(Cl)c(O)c(Br)c1)C1CCCCC1 | 136 to 138 °C
COc1ccc(C2(O)C(=O)N(Cc3ccc(Cl)cc3)c3ccccc32)cn1 (stereo unspecified) | 182 to 184 °C
CN1CCN(c2ccc([N+](=O)[O-])c(N)c2)CC1 | 109 to 110 °C
CCOC(=O)CCCCCN(C)S(=O)(=O)C=C(C(C)=O)c1cccc([N+](=O)[O-])c1 | 60 to 63 °C
O=[N+]([O-])c1ccc2c(c1)Sc1cc(Br)ccc1N2 | > 250 °C
O=C(O)c1cn(C(c2ccccc2)(c2ccccc2)c2ccccc2)c(I)n1 | 203 to 205 °C
Cc1cc2c(cc1C)C1(CO2)C(=O)Nc2ccccc21 (stereo unspecified) | 206 to 207 °C
Cn1c(=O)c2cn(S(=O)(=O)CCCCl)nc2n(C)c1=O | 160 to 162 °C
NC(=O)c1cc(-c2cccc(Cl)c2)sc1N | 190 to 192 °C
CC(=O)OC1CSC(Oc2cncc(-c3cccnc3Cl)c2)C(OC(C)=O)C1OC(C)=O (stereo unspecified) | 162 °C
CCn1nc2oc(C=CC(N)=O)c(C)c2c1C | 258 to 260 °C
Cc1c(Cl)ccc(S(=O)(=O)Cl)c1Cl | 75 °C
O=[N+]([O-])c1ccc(NCc2ccccc2)c([N+](=O)[O-])c1 | 106 °C
Oc1cc2cc(-c3ccccc3Cl)sc2c(Cl)c1Cl | 174 to 175 °C
Cc1ccccc1-c1cc(C(C)(C)C)c(O)c(C(C)(C)C)c1 | 85.5 to 87.5 °C
Cc1cc(C)cc(Sc2[nH]c(C)nc2CO)c1 | 199 to 201 °C
COc1cc(OC)nc(Oc2cccnc2CO)n1 | 115 °C
OCc1cn2c(n1)CN=C(c1ccccn1)c1cc(Br)ccc1-2 | 176 to 178 °C
CCCCOC(=O)c1cccc(I)c1C(=O)NC(C)(C)CS(C)=O (stereo unspecified) | 57.5 to 66.3 °C
Cc1ccc(-c2nc(N)nc(N)c2[N+](=O)[O-])o1 | 196 to 197 °C
CC(C)(C)CC(=O)Nc1cc(NC(=O)C(C)(C)C)cc(NC(=O)C(C)(C)C)c1 | 368 °C
Cc1nnc(C=Cc2ccccc2OCC(O)CNC(C)(C)C)s1 (stereo unspecified) | 110 to 112 °C

From a melting point compilation (Tetko et al.; mined from patent text by program, amines drawn as free bases though some values may be those of a salt)
